Target: T1, hERG K+ channel (Kv11.1) (Homo sapiens, UniProt Q12809)
T1 construct: gene KCNH2
Assay: two-microelectrode voltage clamp, hERG tail current inhibition in Xenopus oocytes; alanine mutants Y652A and F656A reduce block
Format: cell-based

T1 sequence (Q12809 whole entry): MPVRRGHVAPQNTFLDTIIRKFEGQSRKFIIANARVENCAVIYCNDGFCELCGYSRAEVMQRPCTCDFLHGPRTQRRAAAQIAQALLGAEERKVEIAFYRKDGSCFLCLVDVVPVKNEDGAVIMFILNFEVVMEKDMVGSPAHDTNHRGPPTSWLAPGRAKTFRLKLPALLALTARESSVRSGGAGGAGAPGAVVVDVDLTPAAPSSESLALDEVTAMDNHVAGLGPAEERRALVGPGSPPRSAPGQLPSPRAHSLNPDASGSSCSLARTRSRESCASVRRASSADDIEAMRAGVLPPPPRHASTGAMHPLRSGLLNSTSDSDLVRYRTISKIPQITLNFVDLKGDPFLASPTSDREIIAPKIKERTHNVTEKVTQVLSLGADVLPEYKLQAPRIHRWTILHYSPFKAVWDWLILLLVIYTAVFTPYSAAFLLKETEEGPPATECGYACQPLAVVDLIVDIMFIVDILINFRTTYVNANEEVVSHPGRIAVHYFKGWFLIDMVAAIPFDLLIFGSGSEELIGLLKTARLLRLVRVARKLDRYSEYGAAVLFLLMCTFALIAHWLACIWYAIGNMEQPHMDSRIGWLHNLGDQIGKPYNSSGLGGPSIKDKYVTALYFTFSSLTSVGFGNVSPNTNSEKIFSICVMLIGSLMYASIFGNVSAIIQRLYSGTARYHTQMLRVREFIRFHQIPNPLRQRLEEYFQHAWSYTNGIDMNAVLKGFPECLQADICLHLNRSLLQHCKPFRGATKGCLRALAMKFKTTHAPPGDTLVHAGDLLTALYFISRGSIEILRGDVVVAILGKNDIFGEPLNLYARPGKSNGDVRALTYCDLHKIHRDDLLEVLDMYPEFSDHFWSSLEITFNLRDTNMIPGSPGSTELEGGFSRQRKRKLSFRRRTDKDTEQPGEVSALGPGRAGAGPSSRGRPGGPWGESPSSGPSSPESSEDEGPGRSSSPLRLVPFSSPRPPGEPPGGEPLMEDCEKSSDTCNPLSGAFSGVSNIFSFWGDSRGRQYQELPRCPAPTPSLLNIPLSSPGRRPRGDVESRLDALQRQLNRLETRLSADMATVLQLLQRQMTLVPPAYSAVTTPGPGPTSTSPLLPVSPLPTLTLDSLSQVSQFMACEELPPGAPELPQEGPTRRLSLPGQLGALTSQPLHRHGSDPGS

With `O=C(CCc1ccccc1)c1ccccc1OCC(O)CN1CCN(C(c2ccccc2)(c2ccccc2)c2ccccc2)CC1` (stereo not shown) [FB213, 1-[2-(2-hydroxy-3-(4-tritylpiperazin-1-yl)-propoxy)phenyl]-3-phenylpropan-1-one] as the compound, how does the IC50 read?
The IC50 was 47.1 ± 5.1 µM.
